According to patent US4200650A, “2-Amino-cyclopent-1-ene-1-thiocarboxylic acid-disulfides to treat noradrenergic malfunctions” (Richter Gedeon Vegyeszeti Gyar Rt., priority 1976, dated 1980):

Legend:
dopamine-β-hydroxylase [1] = test: Determination of noradrenaline and dopamine levels of brain (dopamine-β-hydroxylase inhibiting effect); format: in vivo, male Wistar rats; conditions: i.p.
Experimental: (§1) The dopamine-β-hydroxylase inhibiting effects of the new compounds according to the invention were examined by the following tests:
(§2) The tests were performed on male Wistar rats weighing 150 to 200 g. The dopamine-β-hydroxylase inhibiting effects of the compounds were evaluated by determining the change of noradrenaline, dopamine and adrenaline levels of the cerebrum, heart, spleen and adrenal gland. The serotonine and 5-hydroxy-indolylacetic acid levels of the cerebrum were also determined. The measurements were performed as follows:
(§3) The animals were decapitated, the cerebrum, heart, spleen and adrenal gland were removed quickly, and the organs were frozen by placing them onto a metal sheet cooled with dry ice. The frozen organs were stored for maximum one night at -20° C.
(§4) Determination of the noradrenaline, dopamine, serotonine and 5-hydroxy-indolylacetic acid contents of brain
The brains were homogenized in 10 parts by volume of 0.4 n perchloric acid. The homogenized mixture was stored at -20° C. overnight, thereafter it was thawed and centrifuged as described above. A sample of the homogenized mixture corresponding to 0.5 g of brain was removed, the pH of the sample was adjusted to 8.0±0.1 with 0.1 molar tris-buffer of the above composition, and the sample was processed as described above for the determination of the noradrenaline content of heart and spleen, with the difference that 1.5 ml of 0.05 n perchloric acid were applied as eluting agent. 0.5 ml of the eluate were applied to determine the noradrenaline and dopamine contents. The measurement was performed as described above, with the difference that samples of 0.5 ml were applied for the recording of the fluorescency of noradrenaline. The residua was placed for 50 minutes into a drying oven heated to 100° C., thereafter the sample was cooled with ice water, and the fluorescency of dopamine was recorded at wavelengths of 325 nm (excitation) and 380 nm (emission).
(§5) In a further test series the serotonine and 5-hydroxy-indolylacetic acid contents were also determined, beside the determination of the noradrenaline and dopamine content, from the same sample. In this instance the brains were homogenized in 10 ml of 75% ethanol, 0.2 ml of EDTA-Na2 and 5% of ascorbic acid were added to the homogenized mixtures, and the homogenized mixtures were maintained at -20° C. overnight. The mixtures were centrifuged as described above, and 5.0 ml samples of the supernatant were removed. The samples were diluted with equal volumes of distilled water, and poured onto ion exchange columns of 0.5×1.5 cm dimensions, filled with buffered Amberlite CG-30 (200 to 400 mesh). The columns were washed with 5 ml of distilled water followed by 1.0 ml of 0.2 n hydrochloric acid, and the first effluent and the aqueous wash were collected for the determination of 5-hydroxy-indolylacetic acid. Elution was continued with further 1.2 ml of 0.2 n hydrochloric acid in order to remove noradrenaline, dopamine and serotonine. Samples of 0.3 ml were used for the determinations.
(§6) Noradrenaline and dopamine were determined by the method of Shellenberger, modified as described above, whereas serotonine was determined by the method of Curzon et al. (Brit. J. Pharmacol. 39, 653/1970/). The basic method was modified as follows: A 0.5% solution of ortho-phthal(di)aldehyde in absolute ethanol was diluted with 10 n hydrochloric acid to 50-fold of its original volume, and 0.6 ml of the resulting 0.01% ortho-phthal(di)aldehyde solution were added immediately to 0.5 ml of the serotonine-containing sample. The sample was placed into a hot water bath for 10 minutes, thereafter cooled with tap water, and the fluorescency was recorded at wavelengths of 360 nm (excitation) and 490 nm (emission).
In the tests disulfiram, 2,2-dipyridyl, bis(1-methyl-4-homopiperazinyl-thriocaronyl)-disulfide, sodium diethyldithiocarbamate and N-phenyl-N'-(2-thiazolyl)-thiourea were applied as reference substances. […]

[2] = tested on: serotonine and 5-hydroxy-indolylacetic acid levels of the cerebrum; test: Determination of serotonine and 5-hydroxy-indolylacetic acid levels of brain; format: in vivo, male Wistar rats
Experimental: as §2, §3, §4, §5, §6
5-Hydroxy-indolylacetic acid was determined from the mixture of the first effluent and the aqueous wash. 10 ml of distilled water and 0.2 ml of concentrated hydrochloric acid were added to the mixture, and the sample was poured onto a 0.8×4.0 cm column filled with Sephadex G-10. The column was washed with 15 ml of 0.1 n hydrochloric acid followed by 1.8 to 2.0 ml of 0.02 n aqueous ammonia, and then 5-hydroxyindolylacetic acid was eluted with further 2.0 ml of aqueous ammonia. 0.5 ml samples were used in the measurements, and the determination was performed according to the method of Korf et al. (Biochem. Pharmacol. 20, 659/1971/).
(§7) In the tests disulfiram, 2,2-dipyridyl, bis(1-methyl-4-homopiperazinyl-thriocaronyl)-disulfide, sodium diethyldithiocarbamate and N-phenyl-N'-(2-thiazolyl)-thiourea were applied as reference substances. The values indicated in Table 1 are the percentages in relation to the amine levels of the controls measured in the same tests (± standard error). The statistical calculations were performed on a TPA/i type computer, using Student's t test.

dopamine-β-hydroxylase [3] = test: Determination of the noradrenaline content of heart; format: in vivo, male Wistar rats; conditions: i.p.
Experimental: as §1, §2, §3
(§8) Determination of the noradrenaline content of heart and spleen
(§9) The organs were weighed in frozen state and then homogenized in 5.0 ml of 0.4 n perchloric acid containing 0.05% of EDTA-Naa and 0.1% of Na2 S2 O5. The homogenized mixtures were centrifuged as described above for the treatment of adrenal gland, the supernatants were decanted, and the pH was adjusted to 8.0±0.1 with a 0.1 molar tris buffer containing 20 g/l of NaOH and 25 g/l of EDTA-Na2. 100 mg of prepared Al2 O3 (Anton et al.: J. Pharm. Ther. 138, 360/1962/) were added to the samples, and the mixtures were shaken mechanically for 20 minutes. Thereafter Al2 O3 was washed with 2×10 ml of distilled water, and noradrenaline was eluted with 1.0 ml of 0.05 n perchloric acid. 0.5 ml samples of the eluate were applied for the determination of noradrenaline. Noradrenaline was determined according to the method of Shellenberger et al. (Anal. Biochem. 39, 356/1971/), with the following modifications of the basic procedure: 0.5 ml of 0.1 molar Na-K-phosphate buffer, containing 9 g/l of EDTA-Na2, were added to 0.5 ml of the eluate, and the catecholamines (noradrenaline in the examination of heart and spleen and noradrenaline and dopamine in the examination of the cerebrum) were oxidized with 0.1 ml of a 0.1 n iodine solution in 5% potassium iodide. After exactly 2 minutes oxidation was stopped by adding 0.25 ml of a 2.5% sodium sulfite solution in 4.4 n aqueous sodium hydroxide to the mixture. 2 minutes after the introduction of the alkaline sulfite solution 0.2 ml of concentrated acetic acid were added to the samples, upon which the pH decreased to 4.4 to 4.5 Thereafter the samples were placed for 5 minutes into a drying oven heated to 100° C., and then the samples were cooled with ice water. The fluorescency of noradrenaline was measured with an OPTON spectrophotometer at wavelengths of 380 nm (excitation) and 490 nm (emission).
as §7

dopamine-β-hydroxylase [4] = test: Determination of the adrenaline content of adrenal gland; format: in vivo, male Wistar rats; conditions: i.p.
Experimental: as §1, §2, §3
Determination of the adrenaline content of adrenal gland
The adrenal glands were freed from fat and homogenized in 3.0 ml of ice-cold 0.4 n perchloric acid. The homogenized mixtures were centrifuged for 10 minutes at 0° C. with a speed of 3200 r.p.m. using a Janetzky K-70 type centrifuge. 0.05 ml samples were taken from the supernatant, and the adrenaline level was determined directly by the method of Laverty et al. (Anal. Biochem. 22, 269/1968/).
as §7

dopamine-β-hydroxylase [5] = conditions: literature, cited from earlier work
dopamine-β-hydroxylase [6] = test: Determination of the noradrenaline content of spleen; format: in vivo, male Wistar rats; conditions: i.p.
Experimental: as §1, §2, §3, §8, §9, §7

[7] = 200 mg/kg, 4 hours, ± standard error
[8] = i.p., 200 mg/kg, 4 hours, ± standard error
[9] = 100 mg/kg, 4 hours, ± standard error
[10] = 200 mg/kg, 8 hours, ± standard error

SMILES: CCN(CC)C(=S)SSC(=S)N(CC)CC [DS, bis(diethylthiocarbamoyl)-disulfide, reference compound]
- Brain DA (dopamine) level, percentages in relation to the controls (dopamine-β-hydroxylase [1]; [7]): 111%
- Brain NA (noradrenaline) level, percentages in relation to the controls (dopamine-β-hydroxylase [1]; [7]): 22.5%
- Brain DA (dopamine) level, percentages in relation to the controls (dopamine-β-hydroxylase [1]; 400 mg/kg, 4 hours): 112%
- Brain NA (noradrenaline) level, percentages in relation to the controls (dopamine-β-hydroxylase [1]; 400 mg/kg, 4 hours): 24.1%
- Brain SE (serotonine) level, percentages in relation to the controls [2, 8]: 122%
- Brain SE (serotonine) level, percentages in relation to the controls ([2]; i.p., 400 mg/kg, 4 hours): 117%
- Heart NA (noradrenaline) level, percentages in relation to the controls (dopamine-β-hydroxylase [3]; [7]): 98%
- Heart NA (noradrenaline) level, percentages in relation to the controls (dopamine-β-hydroxylase [3]; 400 mg/kg, 4 hours): 102%
- Adrenal gland AD (adrenaline) level, percentages in relation to the controls (dopamine-β-hydroxylase [4]; [7]): 52%
- Adrenal gland AD (adrenaline) level, percentages in relation to the controls (dopamine-β-hydroxylase [4]; 400 mg/kg, 4 hours): 66%
- dopamine-β-hydroxylase inhibiting effects, in words (dopamine-β-hydroxylase [5]): strong dopamine-β-hydroxylase inhibiting effects

SMILES: c1ccc(-c2ccccn2)nc1 [2,2-D, 2,2-dipyridyl, reference compound]
- Brain DA (dopamine) level, percentages in relation to the controls (dopamine-β-hydroxylase [1]; 37.5 mg/kg, 4 hours): 116%
- Brain NA (noradrenaline) level, percentages in relation to the controls (dopamine-β-hydroxylase [1]; 37.5 mg/kg, 4 hours): 79.5%
- Brain DA (dopamine) level, percentages in relation to the controls (dopamine-β-hydroxylase [1]; 75 mg/kg, 4 hours): 95%
- Brain NA (noradrenaline) level, percentages in relation to the controls (dopamine-β-hydroxylase [1]; 75 mg/kg, 4 hours): 41.2%
- Brain SE (serotonine) level, percentages in relation to the controls ([2]; i.p., 75 mg/kg, 4 hours): 100%
- Heart NA (noradrenaline) level, percentages in relation to the controls (dopamine-β-hydroxylase [3]; 37.5 mg/kg, 4 hours): 104%
- Heart NA (noradrenaline) level, percentages in relation to the controls (dopamine-β-hydroxylase [3]; 75 mg/kg, 4 hours): 58%
- Spleen NA (noradrenaline) level, percentages in relation to the controls (dopamine-β-hydroxylase [6]; 37.5 mg/kg, 4 hours): 100%
- Adrenal gland AD (adrenaline) level, percentages in relation to the controls (dopamine-β-hydroxylase [4]; 37.5 mg/kg, 4 hours): 80%
- Adrenal gland AD (adrenaline) level, percentages in relation to the controls (dopamine-β-hydroxylase [4]; 75 mg/kg, 4 hours): 63%
- dopamine-β-hydroxylase inhibition under in vitro conditions, in words (dopamine-β-hydroxylase [5]; in vitro): effective under in vitro conditions

SMILES: S=C(Nc1ccccc1)Nc1nccs1 [Compound U-14624, N-phenyl-N'-(2-thiazolyl)-thiourea, reference compound]
- Brain DA (dopamine) level, percentages in relation to the controls (dopamine-β-hydroxylase [1]; [7]): 121%
- Brain NA (noradrenaline) level, percentages in relation to the controls (dopamine-β-hydroxylase [1]; [7]): 31.6%
- Brain 5-HIAA (5-hydroxy-indolylacetic acid) level, percentages in relation to the controls [2, 8]: 175%
- Brain SE (serotonine) level, percentages in relation to the controls [2, 8]: 137%
- Heart NA (noradrenaline) level, percentages in relation to the controls (dopamine-β-hydroxylase [3]; [7]): 106%
- Spleen NA (noradrenaline) level, percentages in relation to the controls (dopamine-β-hydroxylase [6]; [7]): 111%
- Adrenal gland AD (adrenaline) level, percentages in relation to the controls (dopamine-β-hydroxylase [4]; [7]): 72%

SMILES: CCCCNC1=C(C(=S)SSC(=S)C2=C(NCCCC)CCC2)CCC1 [Compound M-2, 2-(N-butyl)-amino-cyclopent-1-ene-thiocarboxylic aciddisulfide]
- Brain DA (dopamine) level, percentages in relation to the controls (dopamine-β-hydroxylase [1]; [9]): 118.3±5.7%
- Brain NA (noradrenaline) level, percentages in relation to the controls (dopamine-β-hydroxylase [1]; [9]): 80.1±4.3%
- Brain DA (dopamine) level, percentages in relation to the controls (dopamine-β-hydroxylase [1]; [7]): 94.2±7.5%
- Brain NA (noradrenaline) level, percentages in relation to the controls (dopamine-β-hydroxylase [1]; [7]): 70.9±5.2%
- Brain DA (dopamine) level, percentages in relation to the controls (dopamine-β-hydroxylase [1]; [10]): 91.0±12.7%
- Brain NA (noradrenaline) level, percentages in relation to the controls (dopamine-β-hydroxylase [1]; [10]): 81.6±7.3%
- response vs control in vivo at 200 mg/kg ([2]; Rattus norvegicus, ip, 200 mg/kg, 8 hours, ± standard error, read-out: Brain 5-HIAA (5-hydroxy-indolylacetic acid) level, percentages in relation to the controls): 126 ± 7.1%
- Heart NA (noradrenaline) level, percentages in relation to the controls (dopamine-β-hydroxylase [3]; [9]): 91.5±5.2%
- Heart NA (noradrenaline) level, percentages in relation to the controls (dopamine-β-hydroxylase [3]; [7]): 108.5±9.4%
- Heart NA (noradrenaline) level, percentages in relation to the controls (dopamine-β-hydroxylase [3]; [10]): 91.7±4.6%
- Spleen NA (noradrenaline) level, percentages in relation to the controls (dopamine-β-hydroxylase [6]; [7]): 114.5±28.2%
- Spleen NA (noradrenaline) level, percentages in relation to the controls (dopamine-β-hydroxylase [6]; [10]): 96.4±23.1%
- Adrenal gland AD (adrenaline) level, percentages in relation to the controls (dopamine-β-hydroxylase [4]; [9]): 81.0±8.5%
- Adrenal gland AD (adrenaline) level, percentages in relation to the controls (dopamine-β-hydroxylase [4]; [7]): 91.7±4.3%
- Adrenal gland AD (adrenaline) level, percentages in relation to the controls (dopamine-β-hydroxylase [4]; [10]): 87.7±4.2%
